Reference: patent US5219884A, “Immunosuppressant” (Taito Co., Ltd., priority 1990, dated 1993)
Values after ≈ are worked out from the molar mass of the structure shown. Where two headings read alike, the source gives them in different places.

Legend:
Assay type in all cases: cell-based
[1] = test system: human allogenic MLR (peripheral blood lymphocytes); test: human allogenic MLR-suppressive activity
Method: The human allogenic MLR-suppressive activity was assayed as follows:
Human peripheral blood lymphocytes obtained by Ficoll-Paque density gradient centrifugation of normal human peripheral blood were suspended in the RPMI1640 medium supplemented with 10% FCS, placed in plastic dishes, and incubated at 37° C. in an atmosphere of 5% carbon dioxide for 2 hours. After termination of incubation, the supernatant after gentle pipetting was harvested and centrifuged (1000 rpm, for 5 minutes) to obtain plastic-nonadherent cells. The plastic-nonadherent cells were allowed to pass through a nylon-wool column to give nylon-nonadherent cells, and the concentration of the cell suspension was adjusted to 4×10^6 cells/ml by using the RPMI1640 culture medium supplemented with 10% FCS, and used as the responder cell suspension.
The plastic-adherent cells were removed from the plastic dish by vigorous pipetting after addition of phosphate buffered saline supplemented with 5% FCS and 0.02% disodium ethylenediamine-tetraacetic acid (EDTA). The plastic-adherent cells were treated with 40 μg/ml of mitomycin C at 37° C. for 60 minutes, washed three times, and suspended to the concentration of 4×10^6 cells/ml in the RPMI1640 culture medium supplemented with 10% FCS. The resultant suspension was used as the stimulator cell suspension. Fifty μl of the responder cell suspension from the donor A or C was mixed with 50 μl of the stimulator cell suspension from the donor B or D, to which 100 μl of the test substance was added, and cultured at 37° C. in the an atmosphere 5% carbon dioxide for 5 days.
After termination of the culture, 1.0 μCi/well of ^3 H-thymidine was added, and after 18 hours of culture, the cells were harvested by a cell-harvester. The radioactivity incorporated into the cells was measured by a liquid scintillation counter as the index of blastogenic response of lymphocytes in human allogenic MLR. The suppression of human allogenic MLR was evaluated by calculating the percent suppression by the following formula. [formula]

[2] = test system: IL2-dependent mouse cell line CTLL-2; test: suppression of IL-2 induced 3H-thymidine incorporation of CTLL-2; details: for inhibition at 0.01 µg/mL / inhibition at 0.1 µg/mL / inhibition at 1 µg/mL / inhibition at 10 µg/mL: Mus musculus; for inhibition at 0.01 µg/mL / inhibition at 0.1 µg/mL / inhibition at 10 µg/mL: read-out: Suppression
Method: IL2-dependent mouse cell line CTLL-2 cells were suspended in the RPMI1640 culture medium supplemented with 30% FCS to a concentration of 2×10^5 cells/ml. The suspension (50 μl) and 50 μl of concanavalin A-stimulated rat spleen cell culture supernatants containing IL2 were added to each well of 96-well microculture plates in which 100 μl of the test substance had been placed. After culturing at 37° C. in an atmosphere of 5% carbon dioxide for 20, 44, or 68 hours, 0.5 μCi/well of ^3 H-thymidine was added, and cultured for 4 hours under the same conditions. After termination of the culture, the cells were harvested by a cell harvester, and the radioactivity incorporated into the cells was measured by a liquid scintillation counter.

[3] = test system: IL3 production in mouse allogenic MLC; test: suppression of IL3 production in mouse allogenic MLC
Method: The supernatant of mouse allogenic MLC and the supernatant of PHA-stimulated mouse spleen cells culture were prepared in the same manner as in Experimental Example 6.
The IL3 activity in the supernatant described above was assayed as follows: IL3-dependent mouse cell line FDC-P2 cells were suspended in the RPMI1640 culture medium supplemented with 10% FCS to the concentration of 10^5 cells/ml, and 100 μl of the suspension was added to each well of 96-well microculture plates in which 100 μl per well of the two-fold serial dilutions of the supernatant described above had been placed. After culturing at 37° C. in an atmosphere of 5% carbon dioxide for 20 hours, 0.5 μCi/well of ^3 H-thymidine was added, and cultured for further 4 hours under the same conditions. After termination of the culture, the cells were harvested by a cell harvester, and the radioactivity incorporated into the cells was measured by a liquid scintillation counter. The IL3 activity was expressed in U/ml as the titer at the concentrations at which the amount of ^3 H-thymidine incorporated was 50% of the maximum.

CCCCCCC(=O)CCCCCC/C=C/CC1OC(=O)C(N)(CO)C1O (stereo not drawn) [Example 4]
inhibition at 0.0001 µg/mL ([1]; Homo sapiens, Lymphocyte, donor A/donor B, 0.0001 μg/ml, read-out: Suppression): 32.3%
inhibition at 0.001 µg/mL ([1]; Homo sapiens, Lymphocyte, donor A/donor B, 0.001 μg/ml, read-out: Suppression): 47.4%
inhibition at 0.01 µg/mL ([1]; Homo sapiens, Lymphocyte, donor A/donor B, 0.01 μg/ml, read-out: Suppression): 65.8%
inhibition at 0.1 µg/mL ([1]; Homo sapiens, Lymphocyte, donor A/donor B, 0.1 μg/ml, read-out: Suppression): 89.2%
inhibition at 1 µg/mL ([1]; Homo sapiens, Lymphocyte, donor A/donor B, 1 μg/ml, read-out: Suppression): 83.5%
inhibition at 10 µg/mL ([1]; Homo sapiens, Lymphocyte, donor A/donor B, 10 μg/ml, read-out: Suppression): 86.4%
inhibition at 10 pg/mL ([1]; Homo sapiens, Lymphocyte, donor C/donor D, 0.00001 μg/ml, read-out: Suppression): 55.8%
inhibition at 0.0001 µg/mL ([1]; Homo sapiens, Lymphocyte, donor C/donor D, 0.0001 μg/ml, read-out: Suppression): 61.9%
inhibition at 0.001 µg/mL ([1]; Homo sapiens, Lymphocyte, donor C/donor D, 0.001 μg/ml, read-out: Suppression): 58.5%
inhibition at 0.01 µg/mL ([1]; Homo sapiens, Lymphocyte, donor C/donor D, 0.01 μg/ml, read-out: Suppression): 80.8%
inhibition at 0.1 µg/mL ([1]; Homo sapiens, Lymphocyte, donor C/donor D, 0.1 μg/ml, read-out: Suppression): 84.9%
inhibition at 1 µg/mL ([1]; Homo sapiens, Lymphocyte, donor C/donor D, 1 μg/ml, read-out: Suppression): 79.2%
IC50 ([1]; Lymphocyte, human allogenic MLR, read-out: 50%-inhibition concentration (IC50)): 0.79 ng/mL (≈ 2.06 nM)
3H-thymidine uptake ([1]; donor A/donor B, 0.0001 μg/ml): 16963 cpm
3H-thymidine uptake ([1]; donor A/donor B, 0.001 μg/ml): 13715 cpm
3H-thymidine uptake ([1]; donor A/donor B, 0.01 μg/ml): 9754 cpm
3H-thymidine uptake ([1]; donor A/donor B, 0.1 μg/ml): 4734 cpm
3H-thymidine uptake ([1]; donor A/donor B, 1 μg/ml): 5954 cpm
3H-thymidine uptake ([1]; donor A/donor B, 10 μg/ml): 5332 cpm
3H-thymidine uptake ([1]; donor C/donor D, 0.00001 μg/ml): 7746 cpm
3H-thymidine uptake ([1]; donor C/donor D, 0.0001 μg/ml): 6700 cpm
3H-thymidine uptake ([1]; donor C/donor D, 0.001 μg/ml): 7278 cpm
3H-thymidine uptake ([1]; donor C/donor D, 0.01 μg/ml): 3417 cpm
3H-thymidine uptake ([1]; donor C/donor D, 0.1 μg/ml): 2708 cpm
3H-thymidine uptake ([1]; donor C/donor D, 1 μg/ml): 3703 cpm
3H-thymidine uptake ([2]; 24 hrs, 0.01 μg/ml): 5907 cpm
3H-thymidine uptake ([2]; 24 hrs, 0.1 μg/ml): 4240 cpm
3H-thymidine uptake ([2]; 24 hrs, 1 μg/ml): 5400 cpm
3H-thymidine uptake ([2]; 24 hrs, 10 μg/ml): 2602 cpm
3H-thymidine uptake ([2]; 48 hrs, 0.01 μg/ml): 21930 cpm
3H-thymidine uptake ([2]; 48 hrs, 0.1 μg/ml): 9202 cpm
3H-thymidine uptake ([2]; 48 hrs, 1 μg/ml): 7202 cpm
3H-thymidine uptake ([2]; 48 hrs, 10 μg/ml): 7465 cpm
3H-thymidine uptake ([2]; 72 hrs, 0.01 μg/ml, control 78515 cpm): 69355 cpm
3H-thymidine uptake ([2]; 72 hrs, 0.1 μg/ml, control 78515 cpm): 16705 cpm
3H-thymidine uptake ([2]; 72 hrs, 1 μg/ml, control 78515 cpm): 4088 cpm
3H-thymidine uptake ([2]; 72 hrs, 10 μg/ml, control 78515 cpm): 11806 cpm
inhibition at 0.01 µg/mL ([2]; CTLL-2, 48 h): 13.3%
inhibition at 0.01 µg/mL ([2]; CTLL-2, 24 hrs, 0.01 μg/ml): 11.8%
inhibition at 0.1 µg/mL ([2]; CTLL-2, 24 hrs, 0.1 μg/ml): 37.5%
inhibition at 1 µg/mL ([2]; CTLL-2, 24 hrs, 1 μg/ml): 19.6%
inhibition at 10 µg/mL ([2]; CTLL-2, 24 hrs, 10 μg/ml): 62.7%
inhibition at 0.1 µg/mL ([2]; CTLL-2, 48 hrs, 0.1 μg/ml): 64.6%
inhibition at 1 µg/mL ([2]; CTLL-2, 48 hrs, 1 μg/ml): 72.7%
inhibition at 10 µg/mL ([2]; CTLL-2, 48 hrs, 10 μg/ml): 71.6%
inhibition at 0.01 µg/mL ([2]; CTLL-2, 72 hrs, 0.01 μg/ml, control 78515 cpm): 11.8%
inhibition at 0.1 µg/mL ([2]; CTLL-2, 72 hrs, 0.1 μg/ml, control 78515 cpm): 79.4%
inhibition at 1 µg/mL ([2]; CTLL-2, 72 hrs, 1 μg/ml, control 78515 cpm): 95.6%
inhibition at 10 µg/mL ([2]; CTLL-2, 72 hrs, 10 μg/ml, control 78515 cpm): 85.7%
IL3 activity ([3]; 0.01 μg/ml): 26.0 U/ml
IL3 activity ([3]; 0.1 μg/ml): 16.0 U/ml
IL3 activity ([3]; 1 μg/ml): 8.6 U/ml
IL3 activity ([3]; 10 μg/ml): 6.1 U/ml
inhibition at 0.01 µg/mL ([3]; Mus musculus, read-out: Suppression): 29.3%
inhibition at 0.1 µg/mL ([3]; Mus musculus, 0.1 μg/ml, read-out: Suppression): 56.5%
inhibition at 1 µg/mL ([3]; Mus musculus, 1 μg/ml, read-out: Suppression): 76.6%
inhibition at 10 µg/mL ([3]; Mus musculus, 10 μg/ml, read-out: Suppression): 83.4%
